According to patent publication US7910620B2, “Uses of neuraminidase inhibitors in infectious diseases” (priority 2005, dated 2011):
“And” between values parts separate entries of the source, which are not always exact repeats. Identical values can stand only once. “Also recorded” adds a separate entry of the source.

Legend:
[1] = test system: Infectious Canine Tracheobronchitis (ICT) or Kennel Cough; format: in vivo, dog; conditions: for Clinical course (Days to Recover): racing greyhounds Miami, oral antibiotic plus cough suppressant, no Tamiflu, 5 days
E. coli = experiment: Clinical Trial: Tamiflu and E. coli (case Pinga, Table 16); format: in vivo, feline; conditions: for Clinical response: case Pinga, acute vomiting and hematuria, endotoxic condition
Procedure: In Table 16, E. coli, a neuraminidase dependent bacteria, was cultured from Pinga's urine following an acute onset of vomiting and hematuria. […] 24, 2005 when […] presented in an endotoxic condition.

[2] = test system: canine parvoviral enteritis; experiment: Canine parvoviral enteritis clinical cases: treatment and prevention with oral Tamiflu; format: in vivo, dog; conditions: for Outcome of exposed dogs (Days to Recover): exposed - preventive, Tamiflu 1 mg/lb once a day (AM) for 5 days
Procedure: Table 3 represents 28 Chihuahua dogs and puppies that experienced an outbreak of canine parvoviral enteritis within their kennel. The initial treatment lasted one week and was consistent with traditional therapy. (IV fluids, antibiotics and antiemetics). During the first week, 9 puppies died and a second veterinarian was consulted.
The second veterinarian removed all IV treatment and started oral Tamiflu and AmoxiDrops on 11 puppies. This treatment was administered by the kennel staff with the veterinarian consulting by phone.
The exposed dogs received 1 mg/lb of Tamiflu once a day for 5 days.
Table 4 represents of 25 cocker spaniel dogs and puppies that experienced an outbreak of canine parvoviral enteritis within their kennel. The initial treatment lasted one week and was consistent with traditional therapy consisting of IV fluids and antibiotics, antiemetics and steroids. During this period of time, 9 puppies died, and a second veterinarian was consulted.
The second veterinarian removed all IV treatment and oral Tamiflu and sulfadimethoxine/ormetoprim (antibiotic) were the only drugs administered to 11 of the puppies. The 12th puppy was taken to the veterinarian's clinic and received IV therapy. Those puppies remaining at the kennel were treated by the kennel staff.
Table 5 represents 48 individual cases of Canine Parvoviral Enteritis treated with 1 mg/lb Tamiflu AM/PM for 10 treatments. Cases posted VIN's Infectious Dz Board by 20 veterinarians practicing in 15 states.

[3] = test system: Raccoon Parvoenteritis/Distemper; experiment: Raccoon parvoenteritis/distemper treated with Tamiflu; format: in vivo; conditions: raccoons, Tamiflu 1 mg/lb every 12 hrs for 10 treatments, no IV drugs
Procedure: Table 7 represents 5 raccoons treated with Tamiflu at 1 mg/lb given every 12 hrs for 10 treatments. Treatment administered by civilian rehabbers at their homes. Granules mixed with pancake syrup.
Raccoons represent the 5th species (cow, dog, cat, mice) in which a neuraminidase inhibitor has been successful in treating or preventing a disease associated with neuramimidase dependent bacteria. Before using Tamiflu, the hemorrhagic gastroenteritis (Parvo) in raccoon was 100% fatal. […] Treatment was administered by untrained lay personnel at the rehab centers.

[4] = test system: Feline Parvoviral Enteritis; experiment: Feline parvoviral enteritis cases: treatment and prevention with Tamiflu; format: in vivo, cat
Procedure: Table 6 represents 5 cases of Feline Parvoviral Enteritis with Tamiflu at 1 mg/lb AM/PM for 10 treatments.

`CC1=C(C(=O)O)N2C(=O)[C@@H](NC(=O)[C@H](N)c3ccccc3)[C@H]2SC1` [Cephalexin] was tested, and the “Clinical course (Days to Recover)” value [1] was “No Change”.

With `C[C@H]1c2cccc(O)c2C(O)=C2C(=O)[C@]3(O)C(O)=C(C(N)=O)C(=O)[C@@H](N(C)C)[C@@H]3[C@@H](O)[C@@H]21` [Doxy] the “Clinical course (Days to Recover)” value [1] was “No Change”.

For `CCOC(=O)C1=C[C@@H](OC(CC)CC)[C@H](NC(C)=O)[C@@H](N)C1` [Tamiflu, oseltamivir], the “Days to Recover” value ([1]; kennel cough, Tamiflu 1 mg/lb AM/PM, with or without oral antibiotic, no cough suppressant) was 3 to 5 days, the “Illness in holding kennels under herd health program” value ([1]; sick dogs 1 mg/lb AM/PM 5 days, others and new puppies 1 mg/lb once a day for 5 days) was “below 5%” and the Clinical response (E. coli; E. coli cultured from urine) was “dramatic reversal”. For the same compound, the Observations (E. coli; cat Pinga, E. coli cultured from urine, at 2nd treatment, Nov. 24, 2004 5:35 PM, Tamiflu 12 mg PO (1 mg/lb), with Zeniquin) was “Pinga is more alert and has not vomited”, the Temp (E. coli; cat Pinga, at 3rd treatment, Nov. 25, 2004) was 99.5 F and the Temp (E. coli; cat Pinga, at 4th treatment, Nov. 25, 2004) was 98.9 F. The Observations (E. coli; cat Pinga, at 4th treatment, Nov. 25, 2004 5:30 PM, Tamiflu 12 mg PO) was “Urinated, was normal yellow color . . . has”, the Temp (E. coli; cat Pinga, at 5th treatment, Nov. 26, 2004) was 98.8 F and the Observations (E. coli; cat Pinga, at 5th treatment, Nov. 26, 2004 10:30 AM, Tamiflu 12 mg PO, with Zeniquin) was “exam is normal”. The Temp (E. coli; cat Pinga, at 6th treatment, Nov. 26, 2004) was 100.6 F, the Observations (E. coli; cat Pinga, at 6th treatment, Nov. 26, 2004 5 PM, Tamiflu 12 mg PO) was “Urinated normal urine . . . passed 3 small” and the Temp (E. coli; cat Pinga, at 7th treatment, Nov. 27, 2004) was 98.8 F. The Observations (E. coli; cat Pinga, at 7th treatment, Nov. 27, 2004 10:30 AM, Tamiflu 12 mg PO, with Zeniquin) was “more alert . . . began to eat Wellness dry”, the Temp (E. coli; cat Pinga, at 9th treatment, Nov. 28, 2004) was 100.1 F and the Observations (E. coli; cat Pinga, at 9th treatment, Nov. 28, 2004 10:30 AM, Tamiflu 12 mg PO, with Zeniquin) was “almost “normal” . . . maybe weak in rear”. The Observations (E. coli; cat Pinga, at 10th (last) treatment, 5:30 PM, Tamiflu 12 mg PO) was “Pinga appears to be normal . . . this is his”, the “Days to Recover” value ([2]; Chihuahua kennel puppies, Tamiflu 1 mg/lb AM/PM oral with AmoxiDrops, no IV drugs) was 5 days and 3 days and the Survival of puppies ([2]; Chihuahua kennel, 11 puppies, oral Tamiflu and AmoxiDrops) was “All puppies survived”. For the same compound, the “Outcome of exposed dogs (Days to Recover)” value ([2]; Chihuahua kennel) was “remained healthy”, the “Days to Recover” value ([2]; Sandcastle Kennels cocker puppies, Tamiflu 1 mg/lb AM/PM oral with sulfadimethoxine/ormetoprim) was 3 days and 5 days and 4 days and the “Outcome of exposed dogs (Days to Recover)” value ([2]; Sandcastle Kennels) was “did not develop canine parvoviral enteritis; also recorded: Healthy”. The “Outcome of exposed dog (Days to Recover)” value ([2]; Table 5, exposed puppy, weak parvo test, Tamiflu 1 mg/lb AM/PM) was “Normal”, the “Days to Recover” value [3] was 3 days and the “Days to Recover” value ([4]; cats, Tamiflu 1 mg/lb AM/PM for 10 treatments, with IV drugs or SQ fluids) was 4 days and 2 days and 3 days. The “Outcome of exposed kitten (Days to Recover)” value ([4]; exposed kitten, Tamiflu 1 mg/lb once a day (AM) for 5 days) was “remained normal”.

`CN1CCN(c2c(F)cc3c(=O)c(C(=O)O)cn4c3c2OCN4C)CC1` [Zeniquin] was tested, and the Clinical response (E. coli; E. coli cultured from urine) was “failed to respond” and the “Clinical course under antibiotic therapy (Medical History)” value (E. coli; cat Pinga, Zeniquin 12.5 mg/day PO from Nov. 22 to Nov. 24, 2004, before Tamiflu) was “had gotten progressively worse over the course of antibiotic therapy, and now appeared to be approaching”.
